The text below walks through data of patent US12630528B2, “Amino aryl derivative useful as diacylglycerol acyltransferase 2 inhibitor and use thereof” (LG CHEM, LTD., priority 2019, dated 2026).

By IC50 is commonly meant the midpoint of a concentration-inhibition curve.

The experiment has as its target T1, human DGAT2 (Homo sapiens, UniProt Q96PD7).
T1 construct: FLAG (DYKDDDDK); made in house; host or cells: Sf-21 insect cells (BacPAK baculovirus system); membrane fraction used
T1 sequence (Q96PD7 1-388): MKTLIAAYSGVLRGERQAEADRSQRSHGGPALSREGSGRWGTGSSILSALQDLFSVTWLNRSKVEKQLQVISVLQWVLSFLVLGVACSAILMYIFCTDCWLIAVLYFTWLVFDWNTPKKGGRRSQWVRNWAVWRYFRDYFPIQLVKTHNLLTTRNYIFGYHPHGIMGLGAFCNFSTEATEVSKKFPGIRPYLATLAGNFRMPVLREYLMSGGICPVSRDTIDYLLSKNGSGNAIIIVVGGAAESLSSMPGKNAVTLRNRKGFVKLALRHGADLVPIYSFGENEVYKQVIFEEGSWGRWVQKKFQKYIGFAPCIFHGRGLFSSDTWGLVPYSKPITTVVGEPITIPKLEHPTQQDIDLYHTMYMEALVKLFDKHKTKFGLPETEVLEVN
Briefly: DGAT2 enzyme activity inhibition, Phospholipid FlashPlate SPA. The conditions noted are these: recombinant human DGAT2 membrane protein from Sf-21 cells; inhibition of [14C]-TG production; 37° C. Format: biochemical. A digest of the protocol: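 Sf-21 membranes expressing recombinant human DGAT2 (2 μg) preincubated with compound (3 nM–10 μM, 1% DMSO) and 50 μM 1,2 sn-oleoyl glycerol, 20 min at 37 °C, then 1 μM [14C]oleoyl-CoA for 15 min. [14C]-TG counted by SPA; inhibition as % of untreated.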
Turning to `CCOc1ccccc1O[C@@H]1CCCN(c2cncc(Nc3nccc(C4CC5CC4CC5C(=O)O)n3)n2)C1` (stereo partly drawn) [Example 124, 5-(2-((6-((R)-3-(2-ethoxyphenoxy)piperidin-1-yl)pyrazin-2-yl)amino)pyrimidin-4-yl)bicyclo[2.2.1]heptane-2-carboxylic Acid], the IC50 worked out at 340 nM.

On to `CCOc1cccnc1O[C@@H]1CCCN(c2cncc(Nc3ccnc(-c4ccc(CC(C)(C)C(=O)O)cc4)n3)n2)C1` [Example 173, (R)-3-(4-(4-((6-(3-((3-ethoxypyridin-2-yl)oxy)piperidin-1-yl)pyrazin-2-yl)amino)pyrimidin-2-yl)phenyl)-2,2-dimethylpropanoic Acid], for which the half-maximal inhibitory concentration (IC50) is 220 nM.

For `CCOc1ccccc1O[C@@H]1CCCN(c2cncc(Nc3nccc(N4CCCC(C)(C(=O)O)C4)n3)n2)C1` (stereo partly drawn) [Example 122, 1-(2-((6-((R)-3-(2-ethoxyphenoxy)piperidin-1-yl)pyrazin-2-yl)amino)pyrimidin-4-yl)-3-methylpiperidine-3-carboxylic Acid], the IC50 was 6100 nM.

With `CCOc1ccccc1O[C@@H]1CCCN(c2cncc(Nc3ccc(C(F)(F)F)c(-c4ccc(C(C)(C)C(=O)O)cc4)n3)n2)C1` [Example 109, (R)-2-(4-(6-((6-(3-(2-ethoxyphenoxy)piperidin-1-yl)pyrazin-2-yl)amino)-3-(trifluoromethyl)pyridin-2-yl)phenyl)-2-methylpropanoic Acid], the IC50 was found to be 1500 nM.

For the compound `CCOc1ccccc1O[C@@H]1CCCN(c2cncc(Nc3nccc(-c4ccc(CC(C)(C)C(=O)O)cc4)n3)n2)C1` [Example 153, (R)-3-(4-(2-((6-(3-(2-ethoxyphenoxy)piperidin-1-yl)pyrazin-2-yl)amino)pyrimidin-4-yl)phenyl)-2,2-dimethylpropanoic Acid], the IC50 turned out to be 160 nM.

`CCOc1ccccc1O[C@@H]1CCCN(c2cncc(Nc3cccc(Oc4cccc(C(=O)O)c4)n3)n2)C1` [Example 87, (R)-3-((6-((6-(3-(2-ethoxyphenoxy)piperidin-1-yl)pyrazin-2-yl)amino)pyridin-2-yl)oxy)benzoic Acid]: the IC50 came out at 500 nM.

With `CCOc1ccccc1O[C@@H]1CCCN(c2cncc(Nc3nc(-c4ccccc4)co3)n2)C1` [Example 9, (R)—N-(6-(3-(2-ethoxyphenoxy)piperidin-1-yl)pyrazin-2-yl)-4-phenyloxazol-2-amine], the IC50 was 2300 nM.

Take `CCOc1cccnc1O[C@@H]1CCCN(c2cncc(Nc3cccc(-c4cccc(OC(C)(C)C(=O)O)c4)n3)n2)C1` [Example 81, (R)-2-(3-(6-((6-(3-((3-ethoxypyridin-2-yl)oxy)piperidin-1-yl)pyrazin-2-yl)amino)pyridin-2-yl)phenoxy)-2-methylpropanoic Acid]: the IC50 was 200 nM.

As to `CCOc1ccccc1O[C@@H]1CCCN(c2cncc(Nc3ccc(C)c(-c4cccc(CC(C)(C)C(=O)O)c4)n3)n2)C1` [Example 111, (R)-3-(3-(6-((6-(3-(2-ethoxyphenoxy)piperidin-1-yl)pyrazin-2-yl)amino)-3-methylpyridin-2-yl)phenyl)-2,2-dimethylpropanoic Acid], the IC50 is 2200 nM.

Turning to `CCOc1ccccc1O[C@@H]1CCCN(c2cncc(Nc3cccc(N4CCC(C(=O)O)C4)n3)n2)C1` (stereo partly drawn) [Example 52, 1-(6-((6-((R)-3-(2-ethoxyphenoxy)piperidin-1-yl)pyrazin-2-yl)amino)pyridin-2-yl)pyrrolidine-3-carboxylic Acid], the IC50 came to 730 nM.

`CCOc1ccccc1O[C@@H]1CCCN(c2cncc(Nc3nccc(-c4cccc(OC(C)(C)C(=O)O)c4)n3)n2)C1` [Example 176, (R)-2-(3-(2-((6-(3-(2-ethoxyphenoxy)piperidin-1-yl)pyrazin-2-yl)amino)pyrimidin-4-yl)phenoxy)-2-methylpropanoic Acid]: the IC50 came out at 590 nM.

As to `CCOc1ccccc1O[C@@H]1CCCN(c2ccnc(Nc3cccc(-c4cccc(CC(C)(C)C(=O)O)c4)n3)n2)C1` [Example 67, (R)-3-(3-(6-((4-(3-(2-ethoxyphenoxy)piperidin-1-yl)pyrimidin-2-yl)amino)pyridin-2-yl)phenyl)-2,2-dimethylpropanoic Acid], the IC50 was 2400 nM.
